Measurements taken from paper PMC4786998 (Journal of Hematology & Oncology, 2016).
Read-outs that look alike come from different tables or passages of the source.

Assays:
[1] = target: L1196M ALK kinase domain; settings: cited from earlier work
[2] = tested on: panel of 86 tyrosine kinases; settings: 1 μmol/L; cited from earlier work
[3] = tested on: wild-type ALK and EML4-ALK L1196M xenograft tumors; settings: mice, subcutaneous and intracranial xenografts, compared with crizotinib; cited from earlier work
[4] = Electrocardiogram QTcF in phase I patients; settings: 325-mg dose
Protocol: The safety and tolerability of […] were assessed by adverse events (AEs) (graded based on NCI-CTCAE v4.03), laboratory tests, vital signs, electrocardiograms, and clinical observations.

[5] = target: wild-type ALK kinase domain; settings: cited from earlier work
[6] = Phase I safety/tolerability (adverse events, DLT, MTD) in patients with advanced solid tumors
Protocol: The study was divided into two parts: dose escalation and dose expansion. Dose escalation used a traditional 3 + 3 dose-escalation design. […] The first patient in each dose-escalation cohort was evaluated for dose-limiting toxicities (DLTs) in cycle 1, day 4. If no DLTs were reported by the investigator, the remaining patients in the cohort were enrolled. […] The protocol allowed that and subsequent doses to be expanded to enroll an additional three patients who were known to have tumors tested positive for ALK abnormalities once safety was established in the first three subjects for that cohort.

[7] = Plasma pharmacokinetics in phase I patients; format: in vivo, human; settings: for AUC: read-out: AUC24
Protocol: On day 1, the following PK parameters were assessed for […]: area under the plasma concentration-time curve (AUC24), AUClast, maximum concentration observed (Cmax), and time of maximum concentration observed (tmax). On day 28, [NT], Cmax, Ctrough, tmax, CL/F, Vz/F, and t1⁄2, calculated based on the ratio of accumulation for AUC (day 28 AUCtau/day 1 AUC24) (Rac [AUC]), were assessed. Cumulative effects on steady-state […] plasma levels were assessed by comparing Ctrough on day 28 divided by Ctrough on days 8, 15, and 22. For continuous variables, descriptive statistics included the number of patients, mean (standard deviation), median, and range. For antitumor assessments, the number and percentage (95 % CI) of patients with CR, PR, SD, and PD were summarized. The overall best tumor response was also summarized. For the objective response rates, the exact confidence interval of response was calculated only for the dose-expansion cohort using the Clopper-Pearson method. For continuous PK parameters, the coefficient of variation was calculated. For Cmax and AUC, geometric mean was calculated. All data processing and analyses were performed using SAS® Version 9.1.3 or higher. The safety analysis set was defined as patients who received at least one […] dose. The PK analysis set was defined as patients who received at least one dose of […] and provided the values of drug concentrations for at least one time point.

[8] = tested on: crizotinib-resistant ALK-positive tumors; experiment: Antitumor response by RECIST v1.1 in the dose-expansion cohort; format: in vivo, human
Text: Solid tumor assessment was based on Response Evaluation Criteria in Solid Tumors (RECIST) v1.1. For target lesions, complete response (CR) was defined as disappearance of all target lesions and pathologic lymph nodes with a reduction in short axis to <10 mm. Partial response (PR) was defined as a ≥30 % decrease in the sum of diameters of the target lesions, taking as reference the baseline sum of diameters. Progressive disease (PD) was defined as a ≥20 % increase in the sum of diameters from the smallest sum on the study and the sum of diameters to be ≥5 mm from the smallest sum on study. Stable disease (SD) was defined as neither PR nor PD.
For patients in the dose-expansion cohort with evaluable tumor diameter, the best tumor reduction was calculated as the decrease from baseline in the sum of the target lesions.
For continuous variables, descriptive statistics included the number of patients, mean (standard deviation), median, and range. For antitumor assessments, the number and percentage (95 % CI) of patients with CR, PR, SD, and PD were summarized. The overall best tumor response was also summarized. For the objective response rates, the exact confidence interval of response was calculated only for the dose-expansion cohort using the Clopper–Pearson method. For continuous PK parameters, the coefficient of variation was calculated. For Cmax and AUC, geometric mean was calculated. All data processing and analyses were performed using SAS® Version 9.1.3 or higher.

[9] = human, plasma, oral, 25 mg, cycle 1, day 1, 25 mg once daily, dose-escalation cohort, n = 4, mean (standard deviation)
[10] = human, plasma, oral, 25 mg, cycle 1, day 28, 25 mg once daily, dose-escalation cohort, n = 3, mean (standard deviation)
[11] = human, plasma, oral, 50 mg, cycle 1, day 1, 50 mg once daily, dose-escalation cohort, n = 3, mean (standard deviation)
[12] = human, plasma, oral, 50 mg, cycle 1, day 28, 50 mg once daily, dose-escalation cohort, n = 3, mean (standard deviation)
[13] = human, plasma, oral, 75 mg, cycle 1, day 1, 75 mg once daily, dose-escalation cohort, n = 3, mean (standard deviation)
[14] = human, plasma, oral, 75 mg, cycle 1, day 28, 75 mg once daily, dose-escalation cohort, n = 3, mean (standard deviation)
[15] = human, plasma, oral, 125 mg, cycle 1, day 1, 125 mg once daily, dose-escalation cohort, n = 4, mean (standard deviation)
[16] = human, plasma, oral, 125 mg, cycle 1, day 28, 125 mg once daily, dose-escalation cohort, n = 1
[17] = human, plasma, oral, 200 mg once daily, cycle 1, day 28, 200 mg once daily, dose-escalation cohort, n = 3, mean (standard deviation)
[18] = human, plasma, oral, 200 mg, cycle 1, day 1, 200 mg once daily, dose-escalation cohort, n = 4, mean (standard deviation)
[19] = human, plasma, oral, 325 mg once daily, cycle 1, day 28, 325 mg once daily, dose-escalation cohort, n = 3, mean (standard deviation)
[20] = human, plasma, oral, 325 mg, cycle 1, day 1, 325 mg once daily, dose-escalation cohort, n = 3, mean (standard deviation)
[21] = human, plasma, oral, 800 mg, cycle 1, day 1, 800 mg once daily, dose-escalation cohort, n = 3, mean (standard deviation)
[22] = human, plasma, oral, 800 mg, cycle 1, day 28, 800 mg once daily, dose-escalation cohort, n = 1
[23] = expansion cohort, 525 mg, n = 16

Structure (SMILES): COc1cc(N2CCC(N3CCN(C)CC3)CC2)ccc1Nc1ncnc(Nc2ccccc2S(=O)(=O)C(C)C)n1 [ASP3026]
- IC50 [1]: 32 nM
- number of tyrosine kinases inhibited by more than 50 % [2]: 11
- antitumor activity in xenograft tumors [3]: potent antitumor activity
- QTcF, mean (standard deviation) maximal increase [4]: 47.0 (10.7) ms
- IC50 [5]: 10 nM
- deaths on study ([6]; all due to PD, not related to the study drug): three
- changes in clinical laboratory parameters or vital signs over time ([6]; human, in vivo): no meaningful changes
- treatment-related adverse event: fatigue ([6]; human, in vivo): 35%
- treatment-related adverse event: nausea ([6]; human, in vivo): 38%
- treatment-related adverse event: vomiting ([6]; human, in vivo): 35%
- dose-limiting toxicities observed ([6]; human, in vivo, 28 days): Grade 3 rash and elevated transaminase concentrations
- slope estimate (95 % CI) of dose-normalized AUClast versus dose ([7]; human, in vivo): 0.090 (−0.097, 0.277)
- slope estimate (95 % CI) of dose-normalized Cmax versus dose ([7]; human, in vivo): 0.170 (−0.018, 0.358)
- t ½ ([7]; human, in vivo): 24.9 (12.7) h
- time to steady-state plasma concentrations ([7]; human, in vivo): ≤ 8 days
- half-life ([7]; human, in vivo, accumulation half-life, mean (standard deviation)): 25 h
- half-life ([7]; human, in vivo, half-life, range): 22 to 85 h
- half-life ([7]; human, in vivo, median half-life): 35 h
- Tmax ([7]; human, in vivo, po, tmax): ~3 h
- Tmax ([7]; human, in vivo, t max): 4 h
- half-life ([7]; human, in vivo, t ½): 27.3 h
- Cmax [7, 9]: 32 ng/mL
- AUC [7, 9]: 378 ng·h/mL
- Tmax ([7]; human, plasma, oral, 25 mg, cycle 1, day 1, 25 mg once daily, dose-escalation cohort, n = 4, median (range), read-out: t max): 3 h
- Cmax [7, 10]: 68.4 ng/mL
- half-life ([7]; human, plasma, oral, 25 mg, cycle 1, day 28, 25 mg once daily, dose-escalation cohort, n = 3, mean (standard deviation), calculated from accumulation ratio, read-out: t ½ (converted)): 36.6 h
- AUC [7, 10]: 1040 ng·h/mL
- Tmax ([7]; human, plasma, oral, 25 mg, cycle 1, day 28, 25 mg once daily, dose-escalation cohort, n = 3, median (range), read-out: t max): 3 h
- Cmax [7, 11]: 99.7 ng/mL
- AUC [7, 11]: 846 ng·h/mL
- Tmax ([7]; human, plasma, oral, 50 mg, cycle 1, day 1, 50 mg once daily, dose-escalation cohort, n = 3, median (range), read-out: t max): 3 h
- Cmax [7, 12]: 143 ng/mL
- half-life ([7]; human, plasma, oral, 50 mg, cycle 1, day 28, 50 mg once daily, dose-escalation cohort, n = 3, mean (standard deviation), calculated from accumulation ratio, read-out: t ½ (converted)): 35.2 h
- AUC [7, 12]: 2110 ng·h/mL
- Tmax ([7]; human, plasma, oral, 50 mg, cycle 1, day 28, 50 mg once daily, dose-escalation cohort, n = 3, median (range), read-out: t max): 3 h
- Cmax [7, 13]: 87.6 ng/mL
- AUC [7, 13]: 1160 ng·h/mL
- Tmax ([7]; human, plasma, oral, 75 mg, cycle 1, day 1, 75 mg once daily, dose-escalation cohort, n = 3, median (range), read-out: t max): 8.2 h
- Cmax [7, 14]: 352 ng/mL
- half-life ([7]; human, plasma, oral, 75 mg, cycle 1, day 28, 75 mg once daily, dose-escalation cohort, n = 3, mean (standard deviation), calculated from accumulation ratio, read-out: t ½ (converted)): 84.7 h
- AUC [7, 14]: 5630 ng·h/mL
- Tmax ([7]; human, plasma, oral, 75 mg, cycle 1, day 28, 75 mg once daily, dose-escalation cohort, n = 3, median (range), read-out: t max): 3 h
- Cmax [7, 15]: 262 ng/mL
- AUC [7, 15]: 3000 ng·h/mL
- Tmax ([7]; human, plasma, oral, 125 mg, cycle 1, day 1, 125 mg once daily, dose-escalation cohort, n = 4, median (range), read-out: t max): 5 h
- Cmax [7, 16]: 668 ng/mL
- half-life ([7]; human, plasma, oral, 125 mg, cycle 1, day 28, 125 mg once daily, dose-escalation cohort, n = 1, calculated from accumulation ratio, read-out: t ½ (converted)): 36.7 h
- AUC [7, 16]: 8970 ng·h/mL
- Tmax ([7]; human, plasma, oral, 125 mg, cycle 1, day 28, 125 mg once daily, dose-escalation cohort, n = 1, read-out: t max): 2.1 h
- Cmax [7, 17]: 682 ng/mL
- half-life ([7]; human, plasma, oral, 200 mg once daily, cycle 1, day 28, 200 mg once daily, dose-escalation cohort, n = 3, mean (standard deviation), calculated from accumulation ratio, read-out: t ½ (converted)): 21.9 h
- AUC [7, 17]: 7620 ng·h/mL
- Tmax ([7]; human, plasma, oral, 200 mg once daily, cycle 1, day 28, 200 mg once daily, dose-escalation cohort, n = 3, median (range), read-out: t max): 3 h
- Cmax [7, 18]: 490 ng/mL
- AUC [7, 18]: 4580 ng·h/mL
- Tmax ([7]; human, plasma, oral, 200 mg, cycle 1, day 1, 200 mg once daily, dose-escalation cohort, n = 4, median (range), read-out: t max): 2.5 h
- Cmax [7, 19]: 1160 ng/mL
- half-life ([7]; human, plasma, oral, 325 mg once daily, cycle 1, day 28, 325 mg once daily, dose-escalation cohort, n = 3, mean (standard deviation), calculated from accumulation ratio, read-out: t ½ (converted)): 26.3 h
- AUC [7, 19]: 18800 ng·h/mL
- Tmax ([7]; human, plasma, oral, 325 mg once daily, cycle 1, day 28, 325 mg once daily, dose-escalation cohort, n = 3, median (range), read-out: t max): 4 h
- Cmax [7, 20]: 586 ng/mL
- AUC [7, 20]: 7950 ng·h/mL
- Tmax ([7]; human, plasma, oral, 325 mg, cycle 1, day 1, 325 mg once daily, dose-escalation cohort, n = 3, median (range), read-out: t max): 3 h
- Cmax [7, 21]: 1630 ng/mL
- AUC [7, 21]: 21800 ng·h/mL
- Tmax ([7]; human, plasma, oral, 800 mg, cycle 1, day 1, 800 mg once daily, dose-escalation cohort, n = 3, median (range), read-out: t max): 3 h
- Cmax [7, 22]: 4850 ng/mL
- half-life ([7]; human, plasma, oral, 800 mg, cycle 1, day 28, 800 mg once daily, dose-escalation cohort, n = 1, calculated from accumulation ratio, read-out: t ½ (converted)): 37.9 h
- AUC [7, 22]: 78100 ng·h/mL
- Tmax ([7]; human, plasma, oral, 800 mg, cycle 1, day 28, 800 mg once daily, dose-escalation cohort, n = 1, read-out: t max): 4 h
- linearity and dose proportionality of exposure (Cmax and AUClast) ([7]; multiple dosing (day 28), 25- to 800-mg dose range): both linear and dose-proportional exposure
- best overall response: stable disease rate ([8]; 525 mg, 16 crizotinib-resistant ALK-positive patients): 44%
- best overall response: partial response rate ([8]; 525 mg, 16 crizotinib-resistant ALK-positive patients (15 NSCLC, 1 neuroblastoma)): 50%
- objective (overall) response rate (CR + PR) ([8]; 525 mg, 16 crizotinib-resistant ALK-positive patients, 95 % CI 25–75 %): 50%
- stable disease rate ([8]; 525 mg, restricted to ALK-positive NSCLC patients, 6/15): 40%
- partial response rate ([8]; 525 mg, restricted to ALK-positive NSCLC patients, 8/15): 53%
- median progression-free survival ([8]; ALK-positive patients, 95 % CI 4–9): 6 months
- duration of response, range ([8]; dose-expansion cohort, 525 mg): 27 to 338 days
- Best overall response: complete response [8, 23]: 0 n (%)
- Best overall response: partial response [8, 23]: 8 (50) n (%)
- Best overall response: progressive disease [8, 23]: 0 n (%)
- Best overall response: stable disease [8, 23]: 7 (44) n (%)
- Best overall response: unable to evaluate [8, 23]: 1 (6) n (%)
- Objective response (complete response + partial response) ([8]; expansion cohort, 525 mg, n = 16, 95 % CI 25–75 %): 8 (50) n (%)
